Experimental data published in PubChem BioAssay (NCI).
“And” between values parts separate entries of the source, which are not always exact repeats. Equal values may be shown once.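 These data come from cells grown in 96-well plates and exposed to compound for 48 hours at five concentrations. Here, GI50 denotes the concentration required for 50% inhibition of growth. At the TGI there is no net growth.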

Assays:
Assay in all cases: NCI-60 cell line screen, 48 h
786-0 renal = test system: 786-0 renal
A549 NSCLC = test system: A549 NSCLC
HCT-116 colon = test system: HCT-116 colon
HOP-62 NSCLC = test system: HOP-62 NSCLC
HS 578T breast = test system: HS 578T breast
NCI-H460 lung = test system: NCI-H460 lung
SF-268 CNS = test system: SF-268 CNS
SK-MEL-28 melanoma = test system: SK-MEL-28 melanoma
SN12C renal = test system: SN12C renal
SW-620 colon = test system: SW-620 colon

SMILES	GI50 (786-0 renal)	TGI (786-0 renal)	GI50 (A549 NSCLC)	TGI (A549 NSCLC)	GI50 (HCT-116 colon)	TGI (HCT-116 colon)	GI50 (HOP-62 NSCLC)	TGI (HOP-62 NSCLC)	GI50 (HS 578T breast)	TGI (HS 578T breast)	GI50 (NCI-H460 lung)	TGI (NCI-H460 lung)	GI50 (SF-268 CNS)	TGI (SF-268 CNS)	GI50 (SK-MEL-28 melanoma)	TGI (SK-MEL-28 melanoma)	GI50 (SN12C renal)	TGI (SN12C renal)	GI50 (SW-620 colon)	TGI (SW-620 colon)
c1ccc2[nH]c(-c3ccc(N4CCN(c5ccc(-c6nc7ccccc7[nH]6)cc5)CC4)cc3)nc2c1	36.9 µM	> 100 µM	> 100 µM	> 100 µM	5.11 µM	> 100 µM	11.4 µM	75.7 µM	> 100 µM	> 100 µM	> 100 µM	> 100 µM	> 100 µM	> 100 µM	43 µM	> 100 µM	> 100 µM	> 100 µM	58 µM	> 100 µM
CCc1ccc(NCc2cc(OC)c(OC)c(OC)c2)cc1	0.369 µM and 0.77 µM	17.3 µM and > 38.5 µM	0.693 µM and 0.216 µM	98.2 µM and > 92.2 µM	–	10.2 µM and 27.4 µM	–	52.4 µM and 35.5 µM	–	> 100 µM	0.268 µM and 0.127 µM	25.1 µM and 17 µM	0.862 µM and 1.78 µM	43.6 µM and 64.8 µM	1.27 µM and 0.185 µM	> 75.2 µM and 69.6 µM	0.578 µM and 1.16 µM	38.4 µM and > 68.7 µM	0.0871 µM and 0.0541 µM	> 100 µM
COc1ccc(C(=O)/C=C/c2ccc(Cl)cc2)cc1S(=O)(=O)Nc1c(N)nc(SC)[nH]c1=O	1.95 µM	4.13 µM	2.75 µM	7.62 µM	1.56 µM	2.94 µM	1.81 µM	3.97 µM	3.56 µM	24.2 µM	2.49 µM	6.29 µM	2.69 µM	7.32 µM	2.1 µM	4.97 µM	3.45 µM	13.8 µM	2.24 µM	5.5 µM
CCN1C(=O)N(CC)C2C1NN=c1s/c(=C3\C(=O)N(C(C)C)c4ccccc43)c(=O)n12 (centres undefined)	0.852 µM	17.7 µM	0.459 µM	> 100 µM	0.377 µM	> 100 µM	0.441 µM	42.7 µM	0.336 µM	40.3 µM	0.354 µM	> 100 µM	0.722 µM	> 70.3 µM	1.07 µM	> 100 µM	0.616 µM	> 100 µM	0.417 µM	> 100 µM
O=C(O)CSSCC(=O)O	–	> 100 µM	–	> 100 µM	–	> 100 µM	–	> 100 µM	–	> 100 µM	–	> 100 µM	–	> 100 µM	–	> 100 µM	–	> 100 µM	–	> 100 µM
CC[C@](C)(O)C(=O)O[C@H]1C(=O)O[C@@H]2C[C@H]3C(C)=CC(=O)[C@@H](O)[C@]3(C)[C@H]3[C@@]4(O)OC[C@]32[C@@H]1[C@@H](C)[C@H]4O	–	0.832 µM	2.75 µM	14.9 µM and 9.66 µM	0.22 µM	0.957 µM and 0.376 µM	0.165 µM	1.19 µM and 0.368 µM	–	4.44 µM	0.184 µM	1.12 µM and 0.327 µM	0.155 µM	0.633 µM and 0.226 µM	0.0609 µM	0.264 µM and 0.16 µM	0.317 µM	2.03 µM and 5.18 µM	0.216 µM	–
CCCN1C(=O)/C(=c2\sc3n(c2=O)C2C(NN=3)N(CC)C(=O)N2CC)c2ccccc21 (centres undefined)	0.89 µM	16.5 µM	0.854 µM	16.5 µM	0.404 µM	12.4 µM	0.562 µM	16 µM	0.386 µM	> 39.8 µM	0.411 µM	12.1 µM	0.959 µM	19 µM	1.18 µM	29.1 µM	1.26 µM	20.1 µM	0.409 µM	> 100 µM
Cn1c(=O)c2[nH]c(/N=N/N3CCN(CCO)CC3)nc2n(C)c1=O	–	> 100 µM	–	> 100 µM	–	> 100 µM	–	> 100 µM	–	> 100 µM	–	> 100 µM	–	> 100 µM	–	> 100 µM	–	> 100 µM	–	> 100 µM
O=C(O)CS(=O)(=O)C(c1ccccc1)c1ccccc1	–	> 100 µM	–	> 100 µM	–	> 100 µM	–	> 100 µM	–	> 100 µM	–	> 100 µM	–	> 100 µM	–	> 100 µM	–	> 100 µM	–	> 100 µM
COc1cccc(OC(=O)c2ccccc2Nc2ccnc(C(F)(F)F)c2)c1	3.43 µM	12.2 µM	3.18 µM	20.7 µM	1.12 µM	3.07 µM	2.84 µM	6.73 µM	4.85 µM	> 100 µM	4.1 µM	> 100 µM	4.65 µM	26.7 µM	12.7 µM	> 100 µM	5.33 µM	41.2 µM	4.37 µM	> 100 µM
CCN(CC)CCOc1ccc(C(=C(C)c2ccc(Cl)cc2)c2ccc(OCCN(CC)CC)cc2)cc1	0.597 µM	1.12 µM	0.632 µM	1.31 µM	0.591 µM	1.16 µM	0.995 µM	2.91 µM	0.71 µM	1.85 µM	0.63 µM	1.18 µM	0.659 µM	1.49 µM	0.602 µM	1.1 µM	1.19 µM	2.88 µM	0.556 µM	1.1 µM
CC1Oc2cc3c(-c4c(O)cc(O)c5c(O)c6c(cc45)OC(C)C(C)C6=O)c(O)cc(O)c3c(O)c2C(=O)C1C (centres undefined)	–	1.21 µM	–	1.29 µM	–	0.289 µM	–	1.23 µM	–	0.459 µM	–	0.163 µM	–	2.46 µM	–	1.96 µM	–	1.12 µM	–	1.52 µM
NC(=O)[C@H]1CCN(c2ncnc(N)c2F)C[C@@H]1N1CCC[C@@H](Nc2cc(Cl)cc(C(F)(F)F)c2)C1=O	21.8 µM	> 100 µM	15.8 µM	> 100 µM	15.5 µM	43 µM	22 µM	> 100 µM	15.5 µM	> 100 µM	18.4 µM	41.6 µM	23.8 µM	> 100 µM	18.5 µM	44.3 µM	10.9 µM	> 100 µM	25.6 µM	> 100 µM
CC(C)(C(=O)NN)c1ccccc1	–	> 100 µM	–	> 100 µM	–	> 100 µM	–	> 100 µM	–	> 100 µM	–	> 100 µM	–	> 100 µM	–	> 100 µM	–	> 100 µM	–	> 100 µM
CCN=C1C=CC(=C(c2ccc(N(C)C)cc2)c2ccc(N(C)C)cc2)c2ccccc21	0.0866 µM	0.37 µM	0.0312 µM	0.176 µM	0.0358 µM	0.174 µM	0.0825 µM	0.578 µM	0.149 µM	1.02 µM	0.0657 µM	0.572 µM	0.114 µM	0.981 µM	0.15 µM	1.66 µM	0.035 µM	1.37 µM	0.113 µM	1.11 µM
COc1cc2c(cc1OC)-c1ccc3cc4c(cc3c1N(CCN1CCCC1)C2)OCO4	0.477 µM	1.92 µM	0.534 µM	2.02 µM	0.477 µM	1.76 µM	0.376 µM	1.93 µM	1.53 µM	14.7 µM	0.289 µM	1.17 µM	0.36 µM	2 µM	7.09 µM	20.3 µM	0.345 µM	1.43 µM	0.472 µM	2.28 µM
CCOC(=O)Cc1c[nH]c(=S)[nH]c1=O	> 100 µM	> 100 µM	> 100 µM	> 100 µM	> 100 µM	> 100 µM	> 100 µM	> 100 µM	> 100 µM	> 100 µM	> 100 µM	> 100 µM	> 100 µM	> 100 µM	> 100 µM	> 100 µM	> 100 µM	> 100 µM	> 100 µM	> 100 µM
Cc1ccc2[nH]c(C(=O)NN3C(=O)CSC34CCCCC4C)c(-c3ccccc3)c2c1 (centres undefined)	17.3 µM	37.9 µM	13.2 µM	28.2 µM	14.5 µM	34.2 µM	18 µM	33.9 µM	27.8 µM	96.2 µM	18.2 µM	43.7 µM	17.2 µM	37.4 µM	19.9 µM	38.3 µM	17.7 µM	34.2 µM	23.8 µM	60.1 µM
C[C@]12CC[C@H]3[C@@H](CCC4=CC(=O)CC[C@@H]43)[C@@H]1CC[C@@H]2OC(=O)N(CCCl)N=O	0.0723 µM	4.82 µM	0.393 µM	14.8 µM	3.92 µM	19.2 µM	3.17 µM	26.1 µM	5.2 µM	34.2 µM	0.0702 µM	2.45 µM	0.167 µM	17.6 µM	11.6 µM	26.1 µM	1.69 µM	21.4 µM	1.75 µM	26.7 µM
COc1ccc2c(c1)CCC1C2CCC2(C)C1CCC2(O)CNC(=O)CCCCC1CCSS1 (centres undefined)	17.7 µM	64 µM	5.73 µM	> 100 µM	9.3 µM	> 100 µM	25 µM	> 100 µM	13.9 µM	> 100 µM	3.25 µM	> 100 µM	15.9 µM	> 100 µM	64.9 µM	> 100 µM	16.6 µM	> 100 µM	12.4 µM	> 100 µM
